The source of these data is PMC7068811 (Frontiers in Immunology, 2020).

Where no end group is shown, it is not given here.

For experiment [1], the system named is human PD1 on Jurkat T cells. Briefly: Competitive inhibition of PD-L1-Fc binding to Jurkat cells overexpressing human PD1. The experiment is classed as cell-based. As to conditions: 10 μM peptide, 30 min on ice, PD-L1-Fc 4 μg/mL; flow cytometry MFI normalized to no peptide; duplicates. Background: A flow cytometer gives signals particle by particle.
The target in a further experiment is human PD1 (Homo sapiens, UniProt Q15116). As to the kind of experiment: Biacore surface plasmon resonance, binding to human PD1. The following applies: for KA: 25°C, HEPES pH 7.4; for Rmax: maximum binding capacity. The procedure:
(§1) Binding experiments were performed on a Biacore T-200 (GE Healthcare Life Sciences, Buckinghamshire, UK) at 25°C. The assay buffer was 10 mM HEPES buffer (pH 7.4), 150 mM NaCl, 3 mM EDTA, and 0.05% P20. The regeneration buffer was 10 mM HEPES buffer (pH 7.4), 150 mM NaCl, 3 mM EDTA, and 0.05% P20. The immobilization buffer was 10 mM sodium acetate at pH 5.0. The flow rate used for immobilizing the ligand was 5 μL/min. The flow rate for kinetics analysis was 30 μL/min. In initial scouting experiments, 12,000 RU of human and 6000 RU of mouse PD1 receptors were directly immobilized on flow cell 2 and flow cell 4 of the CM5 chip using an amine coupling method (EDC/NHS). The unoccupied sites were blocked with 1M ethanol amine. […] Flow cell 1 was kept blank and used for reference subtraction. Binding of an analyte to the ligand was monitored in real-time. Based on the scouting results, full kinetics were performed by immobilizing 10,000 RU of the ligand to a new chip using an analyte concentration of 25 μM, followed by serial dilution to 12.5, 6.25, 3.125, 1.562, 0.78, and 0 μM concentration, or as indicated. Data analysis was performed using software for Biacore 3000, because it has more flexibility in terms of obtaining the binding characteristics with a limited analyte concentration range. […] Chi-square (χ^2) analysis was performed between the actual sensorgram and the sensorgram generated from the BIAnalysis software to determine the accuracy of the analysis. A χ^2 value within 1–2 was considered to be significant (accurate) and below 1 was considered to be highly significant (highly accurate).
(§2) The four peptides identified by phage display were then tested for binding to human and mouse PD1 using the surface plasmon resonance technique.
On the technique in general: In SPR one partner is held on a chip, and binding of the other changes the refractive index at the surface.

A further experiment deals with human PBMC. The experiment is classed as cell-based.
Another experiment has as its target T1, mouse PD1 (Mus musculus, UniProt Q02242).
T1 sequence (Q02242 25-288): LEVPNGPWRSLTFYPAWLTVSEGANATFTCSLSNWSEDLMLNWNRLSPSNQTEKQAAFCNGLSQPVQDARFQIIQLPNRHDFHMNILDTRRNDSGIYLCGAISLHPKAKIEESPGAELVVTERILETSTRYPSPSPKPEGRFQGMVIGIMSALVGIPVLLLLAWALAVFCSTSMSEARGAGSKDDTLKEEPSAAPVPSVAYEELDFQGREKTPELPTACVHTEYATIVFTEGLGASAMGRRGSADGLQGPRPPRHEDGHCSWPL
Briefly: Biacore surface plasmon resonance, binding to mouse PD1. As to conditions: for relative affinity for mouse PD1: compared to WQ20 and HD20 (Table 2); for KA: 25°C, HEPES pH 7.4. The procedure: as §1, §2

The next experiment has as its system P. yoelii sporozoites. As to the kind of experiment: Sporozoite challenge and protection against malaria. The experiment is classed as in vivo, Plasmodium yoelii (17XNL) in BALB/c mice. The following applies: AdPyCS 10^9 virus particles IM; 200 μg IP days 1, 3, 5, 7 where treated; challenge day 12; n = 20/group. The text has this:
Six- to eight-week-old female BALB/c mice were purchased from Taconic (Germantown, NY, USA). All mice were maintained under standard conditions in the Laboratory Animal Research Center of the Rockefeller University, and the protocol was approved by the Institutional Animal Care and Use Committee at the Rockefeller University (Assurance no. A3081-01). A recombinant serotype 5 adenovirus, AdPyCS that expressed Plasmodium yoelii circumsporozoite protein (PyCS) was constructed as previously described ([32]). Wild-type P. yoelii parasites of the 17 XNL strain were maintained in the insect facility of the Division of Parasitology, Department of Microbiology at New York University School of Medicine. […]
Sporozoite challenge experiments were performed as described previously ([32]–[35]). […] Parasitemia was monitored from days 3 to 8 after the sporozoite challenge, by detecting the presence of parasitized red blood cells in thin blood smears to assess for a complete protection against malaria. […]
To evaluate efficacy of the PD1 peptide antagonists as a prophylactic vaccine adjuvant, a rodent malaria model dependent on the generation of protective CD8 T cells was employed. […] On day 12, spleens were harvested and the number of splenic circumsporozoite protein (CS)-specific, IFN-γ-secreting CD8^+ T cells were assessed using an ELISpot assay. […]

The mark [2] stands for this setting: human PD1, peptide analyte 0–25 μM.
Setting [3] is: mouse PD1, peptide analyte 0–25 μM.
Setting [4] is: mouse PD1, peptide analyte 0–25 μM, maximum binding capacity.

Sequence of human PD1 (Q15116 25-288): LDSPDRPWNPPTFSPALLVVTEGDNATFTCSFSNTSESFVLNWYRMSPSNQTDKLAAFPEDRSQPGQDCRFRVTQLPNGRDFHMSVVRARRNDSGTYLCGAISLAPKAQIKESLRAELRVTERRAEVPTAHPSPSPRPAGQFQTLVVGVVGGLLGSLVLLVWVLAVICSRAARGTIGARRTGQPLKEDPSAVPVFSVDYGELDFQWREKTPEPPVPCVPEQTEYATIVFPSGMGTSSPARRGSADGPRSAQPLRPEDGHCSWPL

Regarding QTRTVPMPKIHHPPWQNVVP [QP20], in experiment [1], the “reduction in PD-L1-Fc binding” value is below 30%. The values for the KA on human PD1 (setting [2]) and on mouse PD1 (setting [3]) were 93600 M⁻¹ and 18000 M⁻¹, respectively. Besides, the Rmax was 3.83 RU at human PD1 (setting [2]) and 13.4 RU at mouse PD1 (setting [4]). For the same substance, the “cytokine secretion (IFN-γ, IL-17, IL-6)” value in the experiment with human PBMC is listed as “With the exception of QP20, the other PD1-binding peptides significantly increased cytokine secretion at 200 μM relative to tetanus alone”. The “relative affinity for mouse PD1” value at mouse PD1 was “bound to mouse PD1 with a higher affinity compared to WQ20 and HD20”.
With “negative control peptide: control peptide is the OVA323−339 peptide (malaria model) (KISQAVHAAHAEINEAG; UniProt P01012 323-339, looked up, fragment)”, the “protection against malaria” value in the experiment with P. yoelii sporozoites is listed as “no protection”.
Take HHHQVYQVRSHWTGMHSGHD [HD20]: the “reduction in PD-L1-Fc binding” value in experiment [1] was below 30%. The Rmax at human PD1 (human PD1, peptide analyte 0–12.5 μM) is listed as 3.35 RU; on mouse PD1 (setting [4]), 76 RU. For the same substance, the KA on mouse PD1 (setting [3]) was determined as 4250 M⁻¹.
Regarding SSYHHFKMPELHFGKNTFHQ [SQ20], the “reduction in PD-L1-Fc binding” value in experiment [1] was above 30%. Further, the KA at human PD1 (setting [2]) is 194000 M⁻¹; on mouse PD1 (setting [3]), 21400 M⁻¹. Besides, the Rmax on human PD1 (setting [2]) came out at 4.05 RU; at mouse PD1 (setting [4]) it was 12.8 RU. Also, the “relative affinity for mouse PD1” value at mouse PD1 was “bound to mouse PD1 with a higher affinity compared to WQ20 and HD20”.
“Mouse PD-L1: mouse PD-L1 analyte [reference compound]”: the Rmax is on record as 259 RU in the experiment with mouse PD1 (mouse PD1, mouse PD-L1 analyte 0–50 (head μM)) and 1.07 × 10^3 RU with mouse PD1 (mouse PD1, mouse PD-L1 analyte 0–1000 (head μM)).
